Reference: patent US20200187502A1, “MICROBIOCIDAL OXADIAZOLE DERIVATIVES” (SYNGENTA PARTICIPATIONS AG, priority 2017, published 2020)

Tests used:
[1] = test system: Puccinia recondita f. Sp. Tritici; assay: Fungicidal activity, wheat leaf disc preventative (brown rust); type: in vivo; conditions: foliar, 200 ppm in the applied formulation, wheat leaf segments cv. Kanzler, compared to untreated control, 7 to 9 days after application, read-out: disease control
In short: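 Preventative leaf-segment test: spray application of diluted formulated compound on wheat cv. Kanzler, spore inoculation after 1 day. Percent control relative to untreated segments rated 7 to 9 days post-application, with incubation at 19° C, 75% relative humidity, 12 h photoperiod.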

[2] = test system: Puccinia recondita f. Sp. Tritici; assay: Fungicidal activity, wheat leaf disc curative (brown rust); type: in vivo; conditions: foliar, 200 ppm in the applied formulation, wheat leaf segments cv. Kanzler, curative (applied 1 day after inoculation), compared to untreated control, 6 to 8 days after application, read-out: disease control
Description: Leaf disks or leaf segments of various plant species are cut from plants grown in a greenhouse. The cut leaf disks or segments are placed in multiwell plates (24-well format) onto water agar. The leaf disks are sprayed with a test solution before (preventative) or after (curative) inoculation. Compounds to be tested are prepared as DMSO solutions (max. 10 mg/ml) which are diluted to the appropriate concentration with 0.025% Tween20 just before spraying. The inoculated leaf disks or segments are incubated under defined conditions (temperature, relative humidity, light, etc.) according to the respective test system. A single evaluation of disease level is carried out 3 to 14 days after inoculation, depending on the pathosystem. Percent disease control relative to the untreated check leaf disks or segments is then calculated.
Wheat leaf segments cv. Kanzler are placed on agar in multiwell plates (24-well format). The leaf segments are then inoculated with a spore suspension of the fungus. Plates were stored in darkness at 19° C. and 75% relative humidity. The formulated test compound diluted in water was applied 1 day after inoculation. The leaf segments were incubated at 19° C. and 75% relative humidity under a light regime of 12 hours light/12 hours darkness in a climate cabinet and the activity of a compound was assessed as percent disease control compared to untreated when an appropriate level of disease damage appears in untreated check leaf segments (6 to 8 days after application).
The following compounds at 200 ppm in the applied formulation give at least 80% disease control in this test when compared to untreated control leaf disks under the same conditions, which show extensive disease development.

[3] = test system: Glomerella lacenarium (Colletotrichum lacenarium); assay: Fungicidal activity, liquid culture, cucumber preventative (anthracnose); type: cell-based; conditions: 20 ppm in the applied formulation, liquid culture in PDB, inhibition of growth measured photometrically 3 to 4 days after application, compared to untreated control, read-out: disease control
In short: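 PDB broth seeded with cryo-stored conidia, added onto compound (DMSO solution) in 96-well plates; 24° C.; photometric growth read at 3–4 d post-application; % inhibition vs untreated check.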

CCCC(=O)N(Cc1ccc(-c2noc(C(F)(F)F)n2)s1)C(C)C [Compound 4.44, N-isopropyl-N-[[5-[5-(trifluoromethyl)-1,2,4-oxadiazol-3-yl]-2-thienyl]methyl]butanamide]
≥ 80%: pest or weed control at 200 ppm [1] | pest or weed control at 200 ppm [2] | inhibition of growth at 20 ppm [3]

COCCCC(=O)N(Cc1ccc(-c2noc(C(F)(F)F)n2)s1)C(C)C [Compound 4.48, N-isopropyl-4-methoxy-N-[[5-[5-(trifluoromethyl)-1,2,4-oxadiazol-3-yl]-2-thienyl]methyl]butanamide]
≥ 80%: pest or weed control at 200 ppm [1] | pest or weed control at 200 ppm [2] | inhibition of growth at 20 ppm [3]

CC(C)N(Cc1ccc(-c2noc(C(F)(F)F)n2)s1)C(=O)CC#N [Compound 4.49, 2-cyano-N-isopropyl-N-[[5-[5-(trifluoromethyl)-1,2,4-oxadiazol-3-yl]-2-thienyl]methyl]acetamide]
≥ 80%: pest or weed control at 200 ppm [1] | pest or weed control at 200 ppm [2] | inhibition of growth at 20 ppm [3]

CC(C)N(Cc1ccc(-c2noc(C(F)(F)F)n2)s1)C(=O)CC(F)(F)F [Compound 4.50, 3,3,3-trifluoro-N-isopropyl-N-[[5-[5-(trifluoromethyl)-1,2,4-oxadiazol-3-yl]-2-thienyl]methyl]propanamide]
≥ 80%: pest or weed control at 200 ppm [1] | pest or weed control at 200 ppm [2] | inhibition of growth at 20 ppm [3]

CC(=O)NCC(=O)N(Cc1ccc(-c2noc(C(F)(F)F)n2)s1)C1CC1 [Compound 4.53, 2-acetamido-N-cyclopropyl-N-[[5-[5-(trifluoromethyl)-1,2,4-oxadiazol-3-yl]-2-thienyl]methyl]acetamide]
≥ 80%: pest or weed control at 200 ppm [1] | pest or weed control at 200 ppm [2] | inhibition of growth at 20 ppm [3]

N#CCC(=O)N(Cc1ccc(-c2noc(C(F)(F)F)n2)s1)C1CC1 [Compound 4.59, 2-cyano-N-cyclopropyl-N-[[5-[5-(trifluoromethyl)-1,2,4-oxadiazol-3-yl]-2-thienyl]methyl]acetamide]
≥ 80%: pest or weed control at 200 ppm [1] | pest or weed control at 200 ppm [2] | inhibition of growth at 20 ppm [3]

COCC(=O)N(Cc1ccc(-c2noc(C(F)(F)F)n2)s1)OCC(F)F [Compound 4.62, N-(2,2-difluoroethoxy)-2-methoxy-N-[[5-[5-(trifluoromethyl)-1,2,4-oxadiazol-3-yl]-2-thienyl]methyl]acetamide]
≥ 80%: pest or weed control at 200 ppm [1] | pest or weed control at 200 ppm [2] | inhibition of growth at 20 ppm [3]

CCCC(=O)N(Cc1ccc(-c2noc(C(F)(F)F)n2)s1)OCC(F)F [Compound 4.63, N-(2,2-difluoroethoxy)-N-[[5-[5-(trifluoromethyl)-1,2,4-oxadiazol-3-yl]-2-thienyl]methyl]butanamide]
≥ 80%: pest or weed control at 200 ppm [1] | pest or weed control at 200 ppm [2] | inhibition of growth at 20 ppm [3]

COCCCC(=O)N(Cc1ccc(-c2noc(C(F)(F)F)n2)s1)OCC(F)F [Compound 4.67, N-(2,2-difluoroethoxy)-4-methoxy-N-[[5-[5-(trifluoromethyl)-1,2,4-oxadiazol-3-yl]-2-thienyl]methyl]butanamide]
≥ 80%: pest or weed control at 200 ppm [1] | pest or weed control at 200 ppm [2] | inhibition of growth at 20 ppm [3]

CCN(CC)C(=O)N(CC)Cc1ccc(-c2noc(C(F)(F)F)n2)s1 [Compound 4.73, 1,1,3-triethyl-3-[[5-[5-(trifluoromethyl)-1,2,4-oxadiazol-3-yl]-2-thienyl]methyl]urea]
≥ 80%: pest or weed control at 200 ppm [1] | pest or weed control at 200 ppm [2] | inhibition of growth at 20 ppm [3]

CCN(Cc1ccc(-c2noc(C(F)(F)F)n2)s1)C(=O)N(CCOC)CCOC [Compound 4.74, 1-ethyl-3,3-bis(2-methoxyethyl)-1-[[5-[5-(trifluoromethyl)-1,2,4-oxadiazol-3-yl]-2-thienyl]methyl]urea]
≥ 80%: pest or weed control at 200 ppm [1] | pest or weed control at 200 ppm [2] | inhibition of growth at 20 ppm [3]

COCCN(CCOC)C(=O)N(C)Cc1ccc(-c2noc(C(F)(F)F)n2)s1 [Compound 4.80, 1,1-bis(2-methoxyethyl)-3-methyl-3-[[5-[5-(trifluoromethyl)-1,2,4-oxadiazol-3-yl]-2-thienyl]methyl]urea]
≥ 80%: pest or weed control at 200 ppm [1] | pest or weed control at 200 ppm [2] | inhibition of growth at 20 ppm [3]

CC(C)N(Cc1ccc(-c2noc(C(F)(F)F)n2)s1)C(=O)N(C)CC#N [Compound 4.82, 1-(cyanomethyl)-3-isopropyl-1-methyl-3-[[5-[5-(trifluoromethyl)-1,2,4-oxadiazol-3-yl]-2-thienyl]methyl]urea]
≥ 80%: pest or weed control at 200 ppm [1] | pest or weed control at 200 ppm [2] | inhibition of growth at 20 ppm [3]

COCCNC(=O)N(Cc1ccc(-c2noc(C(F)(F)F)n2)s1)C(C)C [Compound 4.84, 1-isopropyl-3-(2-methoxyethyl)-1-[[5-[5-(trifluoromethyl)-1,2,4-oxadiazol-3-yl]-2-thienyl]methyl]urea]
≥ 80%: pest or weed control at 200 ppm [1] | pest or weed control at 200 ppm [2] | inhibition of growth at 20 ppm [3]

CN(CC#N)C(=O)N(Cc1ccc(-c2noc(C(F)(F)F)n2)s1)C1CC1 [Compound 4.86, 1-(cyanomethyl)-3-cyclopropyl-1-methyl-3-[[5-[5-(trifluoromethyl)-1,2,4-oxadiazol-3-yl]-2-thienyl]methyl]urea]
≥ 80%: pest or weed control at 200 ppm [1] | pest or weed control at 200 ppm [2] | inhibition of growth at 20 ppm [3]

CCN(CC)C(=O)N(Cc1ccc(-c2noc(C(F)(F)F)n2)s1)C1CC1 [Compound 4.90, 1-cyclopropyl-3,3-diethyl-1-[[5-[5-(trifluoromethyl)-1,2,4-oxadiazol-3-yl]-2-thienyl]methyl]urea]
≥ 80%: pest or weed control at 200 ppm [1] | pest or weed control at 200 ppm [2] | inhibition of growth at 20 ppm [3]

COCCN(CCOC)C(=O)N(Cc1ccc(-c2noc(C(F)(F)F)n2)s1)C1CC1 [Compound 4.91, 1-cyclopropyl-3,3-bis(2-methoxyethyl)-1-[[5-[5-(trifluoromethyl)-1,2,4-oxadiazol-3-yl]-2-thienyl]methyl]urea]
≥ 80%: pest or weed control at 200 ppm [1] | pest or weed control at 200 ppm [2] | inhibition of growth at 20 ppm [3]

O=C(C1CC1)N(Cc1ccc(-c2noc(C(F)(F)F)n2)s1)OCC(F)F [Compound 5.7, N-(2,2-difluoroethoxy)-N-[[5-[5-(trifluoromethyl)-1,2,4-oxadiazol-3-yl]-2-thienyl]methyl]cyclopropanecarboxamide]
≥ 80%: pest or weed control at 200 ppm [1] | pest or weed control at 200 ppm [2] | inhibition of growth at 20 ppm [3]

CCN(Cc1ccc(-c2noc(C(F)(F)F)n2)s1)C(=O)CC1CC1 [Compound 5.9, 2-cyclopropyl-N-ethyl-N-[[5-[5-(trifluoromethyl)-1,2,4-oxadiazol-3-yl]-2-thienyl]methyl]acetamide]
≥ 80%: pest or weed control at 200 ppm [1] | pest or weed control at 200 ppm [2] | inhibition of growth at 20 ppm [3]

CCN(Cc1ccc(-c2noc(C(F)(F)F)n2)s1)C(=O)C1CCOC1 (stereo not drawn) [Compound 5.10, N-ethyl-N-[[5-[5-(trifluoromethyl)-1,2,4-oxadiazol-3-yl]-2-thienyl]methyl]tetrahydrofuran-3-carboxamide]
≥ 80%: pest or weed control at 200 ppm [1] | pest or weed control at 200 ppm [2] | inhibition of growth at 20 ppm [3]

CCN(Cc1ccc(-c2noc(C(F)(F)F)n2)s1)C(=O)C1CCC1 [Compound 5.11, N-ethyl-N-[[5-[5-(trifluoromethyl)-1,2,4-oxadiazol-3-yl]-2-thienyl]methyl]cyclobutanecarboxamide]
≥ 80%: pest or weed control at 200 ppm [1] | pest or weed control at 200 ppm [2] | inhibition of growth at 20 ppm [3]

CCN(Cc1ccc(-c2noc(C(F)(F)F)n2)s1)C(=O)C1(C)CC1 [Compound 5.12, N-ethyl-1-methyl-N-[[5-[5-(trifluoromethyl)-1,2,4-oxadiazol-3-yl]-2-thienyl]methyl]cyclopropanecarboxamide]
≥ 80%: pest or weed control at 200 ppm [1] | pest or weed control at 200 ppm [2] | inhibition of growth at 20 ppm [3]

CCN(Cc1ccc(-c2noc(C(F)(F)F)n2)s1)C(=O)C1CCCO1 (stereo not drawn) [Compound 5.13, N-ethyl-N-[[5-[5-(trifluoromethyl)-1,2,4-oxadiazol-3-yl]-2-thienyl]methyl]tetrahydrofuran-2-carboxamide]
≥ 80%: pest or weed control at 200 ppm [1] | pest or weed control at 200 ppm [2] | inhibition of growth at 20 ppm [3]

CN(Cc1ccc(-c2noc(C(F)(F)F)n2)s1)C(=O)C1CCCO1 (stereo not drawn) [Compound 5.22, N-methyl-N-[[5-[5-(trifluoromethyl)-1,2,4-oxadiazol-3-yl]-2-thienyl]methyl]tetrahydrofuran-2-carboxamide]
≥ 80%: pest or weed control at 200 ppm [1] | pest or weed control at 200 ppm [2] | inhibition of growth at 20 ppm [3]
